Data taken from patent publication US8450245B2, “Heterocyclic alkanol derivatives” (Bayer Intellectual Property GmbH, priority 2010, dated 2013).

Assays:
Sphaerotheca fisliginea = test: Sphaerotheca test (cucumber)/protective; format: in vivo; settings: young cucumber plants sprayed at 500 ppm, inoculated one day after treatment, evaluation 7 days after inoculation; 100% = no infection
Procedure: Solvent: 49 parts by weight of N,N-dimethylformamide
Emulsifier: 1 part by weight of alkylaryl polyglycol ether
To produce an appropriate active ingredient formulation, 1 part by weight of active ingredient is mixed with the specified amounts of solvent and emulsifier, and the concentrate is diluted with water to the desired concentration. To test for protective activity, young cucumber plants are sprayed with the formulation of active ingredient at the stated application rate. One day after the treatment, the plants are inoculated with a spore suspension of Sphaerotheca fisliginea. The plants are then placed in a greenhouse at 70% relative air humidity and a temperature of 23° C. Evaluation follows 7 days after the inoculation. 0% means an efficacy which corresponds to that of the control, whereas an efficacy of 100% means that no infection is observed. In this test, the following inventive compounds, at an active ingredient concentration of 500 ppm, show an efficacy of 70% or more.

Alternaria solani = test: Alternaria test (tomato)/protective; format: in vivo; settings: young tomato plants sprayed at 500 ppm, inoculated one day after treatment, evaluation 7 days after inoculation; 100% = no infection
Procedure: Solvent: 49 parts by weight of N,N-dimethylformamide Emulsifier: 1 part by weight of alkylaryl polyglycol ether To produce an appropriate active ingredient formulation, 1 part by weight of active ingredient is mixed with the specified amounts of solvent and emulsifier, and the concentrate is diluted with water to the desired concentration. To test for protective activity, young tomato plants are sprayed with the active ingredient formulation at the stated application rate. One day after the treatment, the plants are inoculated with a spore suspension of Alternaria solani and are then left at 100% relative humidity and 22° C. for 24 h. The plants are then left at 96% relative air humidity and a temperature of 20° C. Evaluation follows 7 days after the inoculation. 0% means an efficacy which corresponds to that of the control, whereas an efficacy of 100% means that no infection is observed. In this test, the following inventive compounds, at an active ingredient concentration of 500 ppm, show an efficacy of 70% or more.

[1] = logP by HPLC on reversed-phase columns (C 18), EEC Directive 79/831 Annex V.A8; format: physicochemical; settings: reversed-phase HPLC column (C 18); method [a]: LC-MS, acidic range, pH 2.7, 0.1% aqueous formic acid and acetonitrile, linear gradient 10% to 95% acetonitrile
Procedure: The logP values were measured in accordance with EEC Directive 79/831 Annex V.A8 by HPLC (High Performance Liquid Chromatography) using reversed-phase columns (C 18) by the following methods: [a] The LC-MS determination in the acidic range is effected at pH 2.7 with 0.1% aqueous formic acid and acetonitile (contains 0.1% formic acid) as eluents; linear gradient from 10% acetonitrile to 95% acetonitrile.

SMILES: CC(C)(C)C(O)(COc1ccc(I)c(F)c1F)c1cncs1 (stereo not drawn) [Compound 1]
- Efficacy (%) (Sphaerotheca fisliginea): 94%
- Efficacy (%) (Alternaria solani): 100%
- chromatographic logP [1]: 3.76
